Assay results from US8075659B2, “Preparations with improved urease-inhibiting effect and urea-containing fertilizers containing the latter” (BASF SE, priority 2006, dated 2011).
Read-outs that look alike come from different tables or passages of the source.

Tests used:
[1] = test system: urease; conditions: Limburgerhof soil; for % N loss based on fertilized N quantity: 30% strength urea solution, 10 days' incubation, inhibitor 0.125% (w/w) based on urea, 20° C.; for % N loss relative to NBTPT without mixing partner / % N loss relative to NNDBTPT without mixing partner / % N loss relative to NiBTPT without mixing partner / % N loss relative to NPTPT without mixing partner / % N loss relative to NcHTPT without mixing partner / % N loss relative to NNDiTPT without mixing partner / % N loss relative to NPenTPT without mixing partner: 30% urea solution, 10 days
Protocol: (§1) The efficacy of the (thio)phosphoric triamides, individually and in combination, was tested by a method based on that of Fenn & Kissel ((1973) Ammonia volatilization from surface applications of ammonium compounds on calcareous soils. Soil Sci. Soc. Am. J. 37, 855-859) for their effect in limiting ammonia volatilization from urea or urea-comprising fertilizers. Three different soils in which ammonia volatilization after urea fertilization is particularly pronounced were used. These soils are distinguished by relatively high pH values of >6.5 and/or low base buffering. […] 200 g of dry soil per incubation vessel were moistened with 5.4 ml of fully demineralized water, and 1.087 g of urea (corresponds to 500 mg of urea-N) were applied in the form of granules. If urea-comprising solutions were tested, the 200 g of soil were moistened with an aqueous urea-comprising solution comprising 1.630 g of urea (corresponds to 750 mg of urea-N), without or with urease inhibitor or combinations of these. The solution was applied dropwise over the entire soil surface, using a pipette. The amount of (thio)phosphoric triamides as individual substances or in combination in different proportions was always a uniform 0.125% (w/w) based on urea. The incubations were accomplished at 20° C. (18-22° C.) in a controlled-environment cabinet. The ammonia collected in the acid trap was determined quantitatively as ammonium using a continuous flow analyzer (from Bran+Luebbe), proceeding by methods with which the skilled worker is familiar.

[2] = test system: urease; conditions: granulated urea, Limburgerhof soil; for % N loss based on fertilized N quantity: 10 days' incubation, inhibitor 0.125% (w/w) based on urea, 20° C.; for % N loss relative to NBTPT without mixing partner / % N loss relative to NiBTPT without mixing partner / % N loss relative to NPTPT without mixing partner / % N loss relative to NcHTPT without mixing partner / % N loss relative to NPenTPT without mixing partner: 10 days
Protocol: as §1

[3] = test system: urease; conditions: Table 10, granulated urea, soil in France; for % N loss based on fertilized N quantity: 10 days' incubation, inhibitor 0.125% (w/w) based on urea, 20° C.; for % N loss relative to NBTPT without mixing partner / % N loss relative to NPTPT without mixing partner: 10 days, NBTPT/NPTPT series
Protocol: as §1

[4] = test system: urease; conditions: Table 9, granulated urea, soil in Hanover; for % N loss based on fertilized N quantity: 10 days' incubation, inhibitor 0.125% (w/w) based on urea, 20° C.; for % N loss relative to NBTPT without mixing partner / % N loss relative to NPTPT without mixing partner: 10 days, NBTPT/NPTPT series
Protocol: as §1

[5] = Table 11, comparative experiment
[6] = Table 12, comparative experiment
[7] = Table 12, NBTPT/NNDiBTPT series

`CCCCN(CCCC)P(N)(N)=S` [NNDBTPT, N,N-di-n-butylthiophosphoric triamide] was tested, and the “% N loss based on fertilized N quantity” value [1, 5] was 19.24%, the “% N loss relative to NBTPT without mixing partner” value ([1]; Table 11, NBTPT/NNDBTPT series) was 1013% and the “% N loss relative to NNDBTPT without mixing partner” value ([1]; Table 11, NBTPT/NNDBTPT series) was 100%.
`CC(C)CNP(N)(N)=S` [NiBTPT, N-isobutylthiophosphoric triamide] was tested, and the “% N loss based on fertilized N quantity” value ([2]; Table 3) was 1.68%, the “% N loss relative to NBTPT without mixing partner” value ([2]; Table 3, NBTPT/NiBTPT series) was 109% and the “% N loss relative to NiBTPT without mixing partner” value ([2]; Table 3, NBTPT/NiBTPT series) was 100%. The “% N loss based on fertilized N quantity” value ([1]; Table 7) was 0.54%, the “% N loss relative to NBTPT without mixing partner” value ([1]; Table 7, NBTPT/NiBTPT series) was 164% and the “% N loss relative to NiBTPT without mixing partner” value ([1]; Table 7, NBTPT/NiBTPT series) was 100%.
With `CCCNP(N)(N)=S` [NPTPT, N-n-propylthiophosphoric triamide] the “% N loss based on fertilized N quantity” value ([2]; Table 4) was 1.60%, the “% N loss relative to NBTPT without mixing partner” value ([2]; Table 4, NBTPT/NPTPT series) was 104% and the “% N loss relative to NPTPT without mixing partner” value ([2]; Table 4, NBTPT/NPTPT series) was 100%. The “% N loss based on fertilized N quantity” value ([1]; Table 8) was 0.42%, the “% N loss relative to NBTPT without mixing partner” value ([1]; Table 8, NBTPT/NPTPT series) was 127% and the “% N loss relative to NPTPT without mixing partner” value ([1]; Table 8, NBTPT/NPTPT series) was 100%. The “% N loss based on fertilized N quantity” value [3] was 1.57%, the “% N loss relative to NBTPT without mixing partner” value [3] was 121% and the “% N loss relative to NPTPT without mixing partner” value [3] was 100%. The “% N loss based on fertilized N quantity” value [4] was 2.08%, the “% N loss relative to NBTPT without mixing partner” value [4] was 158% and the “% N loss relative to NPTPT without mixing partner” value [4] was 100%.
In the case of `NP(N)(=S)NC1CCCCC1` [NcHTPT, N-cyclohexylthiophosphoric triamide], the “% N loss based on fertilized N quantity” value ([2]; Table 1) is reported as 2.77%, the “% N loss relative to NBTPT without mixing partner” value ([2]; Table 1, NBTPT/NcHTPT series) is reported as 180% and the “% N loss relative to NcHTPT without mixing partner” value ([2]; Table 1, NBTPT/NcHTPT series) is reported as 100%. For the same molecule, the “% N loss based on fertilized N quantity” value ([1]; Table 5) was 1.11%, the “% N loss relative to NBTPT without mixing partner” value ([1]; Table 5, NBTPT/NcHTPT series) was 160% and the “% N loss relative to NcHTPT without mixing partner” value ([1]; Table 5, NBTPT/NcHTPT series) was 100%.
In the case of `CC(C)CN(CC(C)C)P(N)(N)=S` [NNDiBTPT, N,N-di-isobutylthiophosphoric triamide], the “% N loss based on fertilized N quantity” value [1, 6] is reported as 21.83%, the “% N loss relative to NBTPT without mixing partner” value [1, 7] is reported as 1149% and the “% N loss relative to NNDiTPT without mixing partner” value [1, 7] is reported as 100%.
With `CCCCCNP(N)(N)=S` [NPenTPT, N-pentylthiophosphoric triamide] the “% N loss based on fertilized N quantity” value ([2]; Table 2) was 2.46%, the “% N loss relative to NBTPT without mixing partner” value ([2]; Table 2, NBTPT/NPenTPT series) was 130% and the “% N loss relative to NPenTPT without mixing partner” value ([2]; Table 2, NBTPT/NPenTPT series) was 100%. For the same molecule, the “% N loss based on fertilized N quantity” value ([1]; Table 6) was 1.12%, the “% N loss relative to NBTPT without mixing partner” value ([1]; Table 6, NBTPT/NPenTPT series) was 158% and the “% N loss relative to NPenTPT without mixing partner” value ([1]; Table 6, NBTPT/NPenTPT series) was 100%.
With `CCCCNP(N)(N)=S` [NBTPT, N-n-butylthiophosphoric triamide] the “% N loss based on fertilized N quantity” value ([2]; Table 1) was 1.54%, the “% N loss relative to NBTPT without mixing partner” value ([2]; Table 1, NBTPT/NcHTPT series) was 100% and the “% N loss relative to NcHTPT without mixing partner” value ([2]; Table 1, NBTPT/NcHTPT series) was 56%. The “% N loss based on fertilized N quantity” value ([2]; Table 2) was 1.54%, the “% N loss relative to NBTPT without mixing partner” value ([2]; Table 2, NBTPT/NPenTPT series) was 100% and the “% N loss relative to NPenTPT without mixing partner” value ([2]; Table 2, NBTPT/NPenTPT series) was 63%. The “% N loss based on fertilized N quantity” value ([2]; Table 3) was 1.54%, the “% N loss relative to NBTPT without mixing partner” value ([2]; Table 3, NBTPT/NiBTPT series) was 100% and the “% N loss relative to NiBTPT without mixing partner” value ([2]; Table 3, NBTPT/NiBTPT series) was 92%. The “% N loss based on fertilized N quantity” value ([2]; Table 4) was 1.54%, the “% N loss relative to NBTPT without mixing partner” value ([2]; Table 4, NBTPT/NPTPT series) was 100% and the “% N loss relative to NPTPT without mixing partner” value ([2]; Table 4, NBTPT/NPTPT series) was 96%. The “% N loss based on fertilized N quantity” value ([1]; Table 5) was 0.69%, the “% N loss relative to NBTPT without mixing partner” value ([1]; Table 5, NBTPT/NcHTPT series) was 100% and the “% N loss relative to NcHTPT without mixing partner” value ([1]; Table 5, NBTPT/NcHTPT series) was 62%. The “% N loss based on fertilized N quantity” value ([1]; Table 6) was 0.71%, the “% N loss relative to NBTPT without mixing partner” value ([1]; Table 6, NBTPT/NPenTPT series) was 100% and the “% N loss relative to NPenTPT without mixing partner” value ([1]; Table 6, NBTPT/NPenTPT series) was 63%. For the same molecule, the “% N loss based on fertilized N quantity” value ([1]; Table 7) was 0.33%, the “% N loss relative to NBTPT without mixing partner” value ([1]; Table 7, NBTPT/NiBTPT series) was 100% and the “% N loss relative to NiBTPT without mixing partner” value ([1]; Table 7, NBTPT/NiBTPT series) was 61%. For the same molecule, the “% N loss based on fertilized N quantity” value ([1]; Table 8) was 0.33%, the “% N loss relative to NBTPT without mixing partner” value ([1]; Table 8, NBTPT/NPTPT series) was 100% and the “% N loss relative to NPTPT without mixing partner” value ([1]; Table 8, NBTPT/NPTPT series) was 79%. The “% N loss based on fertilized N quantity” value [1, 5] was 1.90%, the “% N loss relative to NBTPT without mixing partner” value ([1]; Table 11, NBTPT/NNDBTPT series) was 100% and the “% N loss relative to NNDBTPT without mixing partner” value ([1]; Table 11, NBTPT/NNDBTPT series) was 10%. For the same molecule, the “% N loss based on fertilized N quantity” value [1, 6] was 1.90%, the “% N loss relative to NBTPT without mixing partner” value [1, 7] was 100% and the “% N loss relative to NNDiTPT without mixing partner” value [1, 7] was 9%. The “% N loss based on fertilized N quantity” value [3] was 1.30%, the “% N loss relative to NBTPT without mixing partner” value [3] was 100% and the “% N loss relative to NPTPT without mixing partner” value [3] was 83%. For the same molecule, the “% N loss based on fertilized N quantity” value [4] was 1.32%, the “% N loss relative to NBTPT without mixing partner” value [4] was 100% and the “% N loss relative to NPTPT without mixing partner” value [4] was 63%.
